Positions of bridges follow the written chain, without caps; N, C: chain ends. Non-standard residues stand in square brackets, D forms with d. Residues, ends and D or L forms follow the SMILES beside them. *: point of attachment. X6 = O=C(O)CCCCCCCCCCCCCCCCC(=O)N[C@@H](CCC(=O)NCCCOCCOCCOCCCN*)C(=O)O; X18 = O=C(O)CCCCCCCCCCCCCCC(=O)N[C@@H](CC(=O)NCCCOCCOCCOCCCN*)C(=O)O; X25 = CCCCCCCC[C@@H](NC(=O)CCC(=O)NCCCOCCOCCOCCCN*)C(=O)O; Trp(1-CH2COOH) = N[C@@H](Cc1cn(CC(=O)O)c2ccccc12)C(=O)O; X3 = NC(=O)[C@H](CC(=O)O)NC(=O)CCC(=O)NCCCOCCOCCOCCCN*; X14 = O=C(O)CCCCCCCCCCNC(=O)CCC(=O)NCCCOCCOCCOCCCN*; d(cisHyp) = O=C(O)[C@H]1C[C@@H](O)CN1; NH(CH2)12COOH = O=C(O)CCCCCCCCCCCCN*; Hyp = O=C(O)[C@@H]1C[C@@H](O)CN1; NMeF = CN[C@@H](Cc1ccccc1)C(=O)O; NMeE = CN[C@@H](CCC(=O)O)C(=O)O; dHyp = O=C(O)[C@H]1C[C@H](O)CN1; Undecanoyl = CCCCCCCCCCC(=O)*; NMeNle = CCCC[C@H](NC)C(=O)O; dDab = NCC[C@@H](N)C(=O)O; NMeA = CN[C@@H](C)C(=O)O; Aun = NCCCCCCCCCCC(=O)O; Dab = NCC[C@H](N)C(=O)O; Dap = NC[C@H](N)C(=O)O; Sar = CNCC(=O)O
What follows are compounds tested against T1, PD-L1 (Homo sapiens, UniProt Q9NZQ7) (assay: PD-1/PD-L1 Homogenous Time-Resolved Fluorescence (HTRF) binding assay (PD-1-Ig/PD-L1-His)). Details: inhibition of PD-1-Ig binding to PD-L1-TVMV-His; value given as number; read-out: HTRF IC50.
T1 construct: hPDL1(19-239)-TVMV-His; made in house; host or cells: HEK293T
T1 sequence (Q9NZQ7 with tags, fused parts or gaps): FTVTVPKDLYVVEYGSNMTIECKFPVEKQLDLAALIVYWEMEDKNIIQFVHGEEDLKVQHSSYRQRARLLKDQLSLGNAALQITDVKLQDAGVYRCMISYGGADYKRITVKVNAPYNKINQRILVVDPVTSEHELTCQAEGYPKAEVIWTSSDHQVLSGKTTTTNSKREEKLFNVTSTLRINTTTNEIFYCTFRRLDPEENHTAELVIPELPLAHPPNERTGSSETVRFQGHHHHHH
Procedure, shortened: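 Inhibitors pre-incubated 15 min with PD-L1-His (10 nM final), then PD-1-Ig (20 nM final) added for 15 min in dPBS/0.1% BSA/0.05% Tween-20. Eu-cryptate anti-Ig (1 nM) and APC anti-His (20 nM) added, 30 min equilibration, 665/620 nm HTRF ratio read.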
Compound CCCC[C@H]1C(=O)N(C)[C@@H](CCCC)C(=O)N[C@@H](CCCNC(=N)N)C(=O)N[C@H](C(=O)NCC(=O)NCCCCCCCCCCC(=O)NCCCCCCCCCCC(=O)O)CSCC(=O)N[C@@H](Cc2ccc(O)cc2)C(=O)N(C)[C@@H](C)C(=O)N[C@@H](CC(N)=O)C(=O)N2CCC[C@H]2C(=O)N[C@@H](Cc2cnc[nH]2)C(=O)N[C@@H](CC(C)C)C(=O)N2C[C@H](O)C[C@H]2C(=O)N[C@@H](Cc2c[nH]c3ccccc23)C(=O)N[C@@H](CO)C(=O)N[C@@H](Cc2c[nH]c3ccccc23)C(=O)N1C [Example 11063] ({CH2CO}-Y[NMeA]NPHL[Hyp]WSW[NMeNle][NMeNle]RCG[Aun][Aun]-OH; thioether N-14) has an IC50 of 9.2 nM.

Same assay, conditions: inhibition of PD-1-Ig binding to PD-L1-TVMV-His; value given as range class; read-out: HTRF IC50
With CCCCCCCCCCC(=O)NCCCC[C@H](NC(=O)[C@H](CC(=O)O)NC(=O)CNC(=O)[C@@H]1CSCC(=O)N[C@@H](Cc2ccc(O)cc2)C(=O)N(C)[C@@H](C)C(=O)N[C@@H](CC(N)=O)C(=O)N2CCC[C@H]2C(=O)N[C@@H](CCN)C(=O)N[C@@H](CC(C)C)C(=O)N2C[C@H](O)C[C@H]2C(=O)N[C@@H](Cc2c[nH]c3ccccc23)C(=O)N[C@@H](CO)C(=O)N[C@@H](Cc2c[nH]c3ccccc23)C(=O)N(C)[C@@H](CCCC)C(=O)N(C)[C@@H](CCCC)C(=O)N[C@@H](CCCNC(=N)N)C(=O)N1)C(N)=O [Example 11005] ({CH2CO}-Y[NMeA]NP[Dab]L[Hyp]WSW[NMeNle][NMeNle]RCGDK(Undecanoyl)-NH2; thioether N-14) the IC50 was 10 to 99 nM. Compound CCCC[C@H]1C(=O)N(C)[C@@H](CCCC)C(=O)N[C@@H](CC(C)C)C(=O)N[C@@H](C(=O)NCC(=O)N[C@@H](CC(=O)O)C(=O)N[C@@H](CCC(=O)NCCCOCCOCCOCCCNC(=O)C[C@H](NC(=O)CCCCCCCCCCCCCCC(=O)O)C(=O)O)C(=O)O)CSCC(=O)N[C@@H](Cc2ccc(O)cc2)C(=O)N(C)[C@@H](C)C(=O)N[C@@H](CC(N)=O)C(=O)N2CCC[C@@H]2C(=O)N[C@@H](CN)C(=O)N[C@@H](CC(C)C)C(=O)N2C[C@@H](O)C[C@@H]2C(=O)N[C@@H](Cc2c[nH]c3ccccc23)C(=O)N[C@H](CCN)C(=O)N[C@@H](Cc2cn(CC(=O)O)c3ccccc23)C(=O)N1C [Example 11241] ({CH2CO}-Y[NMeA]N[dP][Dap]L[dHyp]W[dDab][Trp(1-CH2COOH)][NMeNle][NMeNle]L[dC]GDE(X18)-OH; thioether N-14) has an IC50 of 10 to 99 nM. Compound CCCC[C@H]1C(=O)N(C)[C@@H](CCCC)C(=O)N[C@@H](CC(C)C)C(=O)N[C@H](C(=O)NCCCOCCOCCOCCCNC(=O)CCC(=O)NCCCCCCCCCCC(=O)O)CSCC(=O)N[C@@H](Cc2ccc(O)cc2)C(=O)N(C)[C@@H](C)C(=O)N[C@@H](CC(N)=O)C(=O)N2CCC[C@H]2C(=O)N[C@@H](Cc2cnc[nH]2)C(=O)N[C@@H](CCC(=O)O)C(=O)N2C[C@H](O)C[C@H]2C(=O)N[C@@H](Cc2c[nH]c3ccccc23)C(=O)N[C@@H](CO)C(=O)N[C@@H](Cc2c[nH]c3ccccc23)C(=O)N1C [Example 11073] ({CH2CO}-Y[NMeA]NPHE[Hyp]WSW[NMeNle][NMeNle]LC-X14; thioether N-14) has an IC50 of 10 to 99 nM. Compound CCCC[C@H]1C(=O)N(C)[C@@H](CCCC)C(=O)N[C@@H](CCC(=O)O)C(=O)N[C@H](C(=O)NCC(=O)N[C@@H](Cc2cn(CCOCCOCCOCCOCCOCCOCCOCCOCCOCCOCCOCCNC(=O)CC[C@H](NC(=O)CCCCCCCCCCCCCCCCC(=O)O)C(=O)O)nn2)C(=O)O)CSCC(=O)N[C@@H](Cc2ccc(O)cc2)C(=O)N2CCCC[C@H]2C(=O)N[C@@H](CC(N)=O)C(=O)N2CCC[C@H]2C(=O)N[C@@H](CN)C(=O)N[C@@H](CC(C)C)C(=O)N2C[C@H](O)C[C@H]2C(=O)N[C@@H](Cc2c[nH]c3ccccc23)C(=O)N[C@@H](CCN)C(=O)N[C@@H](Cc2cn(CC(=O)O)c3ccccc23)C(=O)N1C [Example 14106] has an IC50 of 100 to 1600 nM. With CCCC[C@H]1C(=O)N(C)[C@@H](CCCC)C(=O)N[C@@H](CC(C)C)C(=O)N[C@H](C(=O)NCCCCCCCCCCC(=O)N[C@@H](CCC(=O)O)C(=O)O)CSCC(=O)N[C@@H](Cc2ccc(O)cc2)C(=O)N(C)[C@@H](C)C(=O)N[C@@H](CC(N)=O)C(=O)N2CCC[C@H]2C(=O)N[C@@H](Cc2cnc[nH]2)C(=O)N[C@@H](CCC(=O)O)C(=O)N2C[C@H](O)C[C@H]2C(=O)N[C@@H](Cc2c[nH]c3ccccc23)C(=O)N[C@@H](CCN)C(=O)N[C@@H](Cc2c[nH]c3ccccc23)C(=O)N1C [Example 11130] ({CH2CO}-Y[NMeA]NPHE[Hyp]W[Dab]W[NMeNle][NMeNle]LC[Aun]E-OH; thioether N-14) the IC50 was 10 to 99 nM. With CCCC[C@H]1C(=O)N(C)[C@@H](CCCC)C(=O)N[C@@H](CCC(=O)O)C(=O)N[C@H](C(=O)NCC(=O)N[C@@H](Cc2cn(CC[C@H](NC(=O)CCCCCCCCCCCCCCC(=O)O)C(=O)O)nn2)C(=O)N[C@@H](CC(=O)O)C(N)=O)CSCC(=O)N[C@@H](Cc2ccc(O)cc2)C(=O)N(C)[C@@H](C)C(=O)N[C@@H](CC(=O)O)C(=O)N2CCC[C@H]2C(=O)N[C@@H](Cc2c[nH]cn2)C(=O)N[C@@H](CCCCN)C(=O)N2C[C@H](O)C[C@H]2C(=O)N[C@@H](Cc2c[nH]c3ccccc23)C(=O)N[C@@H](CCCCN)C(=O)N[C@@H](Cc2cn(CC(=O)O)c3ccccc23)C(=O)N1C [Example 14071] the IC50 was 10 to 99 nM. CCCC[C@H]1C(=O)N(C)[C@@H](CCCC)C(=O)N[C@@H](CC(C)C)C(=O)N[C@H](C(=O)NCC(=O)N[C@@H](CCC(=O)NCCCOCCOCCOCCCNC(=O)CC[C@H](NC(=O)CCCCCCCCCCCCCCCCC(=O)O)C(=O)O)C(=O)O)CSCC(=O)N[C@@H](Cc2ccc(O)cc2)C(=O)N(C)[C@@H](C)C(=O)N[C@@H](CC(N)=O)C(=O)N2CCC[C@H]2C(=O)N[C@@H](CN)C(=O)N[C@@H](CC(C)C)C(=O)N2C[C@H](O)C[C@@H]2C(=O)N[C@@H](Cc2c[nH]c3ccccc23)C(=O)N[C@@H](CCN)C(=O)N[C@@H](Cc2cn(CC(=O)O)c3ccccc23)C(=O)N1C [Example 11163] ({CH2CO}-Y[NMeA]NP[Dap]L[d(cisHyp)]W[Dab][Trp(1-CH2COOH)][NMeNle][NMeNle]LCGE(X6)-OH; thioether N-14) was tested, and the IC50 was 0.3 to 9.9 nM. For CCCC[C@H]1C(=O)N(C)[C@@H](CCCC)C(=O)N[C@@H](CC(C)C)C(=O)N[C@H](C(=O)NCCCOCCOCCOCCCNC(=O)CCC(=O)N[C@@H](CC(=O)O)C(N)=O)CSCC(=O)N[C@@H](Cc2ccc(O)cc2)C(=O)N(C)[C@@H](C)C(=O)N[C@@H](CC(N)=O)C(=O)N2CCC[C@H]2C(=O)N[C@@H](Cc2cnc[nH]2)C(=O)N[C@@H](CCC(=O)O)C(=O)N2C[C@H](O)C[C@H]2C(=O)N[C@@H](Cc2c[nH]c3ccccc23)C(=O)N[C@@H](CCN)C(=O)N[C@@H](Cc2cn(CC(=O)O)c3ccccc23)C(=O)N1C [Example 11067] ({CH2CO}-Y[NMeA]NPHE[Hyp]W[Dab][Trp(1-CH2COOH)][NMeNle][NMeNle]LC-X3; thioether N-14), the IC50 was 10 to 99 nM. For CCCC[C@H]1C(=O)N(C)CC(=O)N[C@@H](CC(=O)O)C(=O)N[C@@H](C(C)C)C(=O)N(C)[C@@H](Cc2ccccc2)C(=O)N[C@@H](Cc2ccc(O)cc2)C(=O)N(C)[C@@H](CCC(=O)O)C(=O)N[C@@H](Cc2c[nH]c3ccccc23)C(=O)N[C@@H](Cc2ccc(O)cc2)C(=O)N[C@@H](CC(C)C)C(=O)N[C@H](C(=O)NCC(=O)NCC(=O)NCC(=O)N[C@@H](CCCCN)C(N)=O)CSCC(=O)N[C@@H](Cc2ccccc2)C(=O)N(C)[C@@H](Cc2ccccc2)C(=O)N1C [Example 3619] ({CH2CO}-F[NMeF][NMeNle][Sar]DV[NMeF]Y[NMeE]WYLCGGGK-NH2; thioether N-13), the IC50 was 0.3 to 9.9 nM. For CCCC[C@H]1C(=O)N(C)[C@@H](CCCC)C(=O)N[C@@H](CCC(=O)O)C(=O)N[C@H](C(=O)NCC(=O)NCC(=O)NCC(=O)NCCCCCCCCCCC(=O)O)CSCC(=O)N[C@@H](Cc2ccc(O)cc2)C(=O)N(C)[C@@H](C)C(=O)N[C@@H](CC(=O)O)C(=O)N2CCC[C@H]2C(=O)N[C@@H](CN)C(=O)N[C@@H](CC(C)C)C(=O)N2C[C@H](O)C[C@@H]2C(=O)N[C@@H](Cc2c[nH]c3ccccc23)C(=O)N[C@@H](CCN)C(=O)N[C@@H](Cc2cn(CC(=O)O)c3ccccc23)C(=O)N1C [Example 11144] ({CH2CO}-Y[NMeA]DP[Dap]L[d(cisHyp)]W[Dab][Trp(1-CH2COOH)][NMeNle][NMeNle]ECGGG[Aun]-OH; thioether N-14), the IC50 was 10 to 99 nM. In the case of CCCCCCCC[C@@H](NC(=O)CCC(=O)NCCCOCCOCCOCCCNC(=O)[C@@H]1CSCC(=O)N[C@@H](Cc2ccc(O)cc2)C(=O)N(C)[C@@H](C)C(=O)N[C@@H](CC(N)=O)C(=O)N2CCC[C@H]2C(=O)N[C@@H](CN)C(=O)N[C@@H](CC(C)C)C(=O)N2C[C@H](O)C[C@H]2C(=O)N[C@@H](Cc2c[nH]c3ccccc23)C(=O)N[C@@H](CCN)C(=O)N[C@@H](Cc2cn(CC(=O)O)c3ccccc23)C(=O)N(C)[C@@H](CCCC)C(=O)N(C)[C@@H](CCCC)C(=O)N[C@@H](CC(C)C)C(=O)N1)C(=O)O [Example 11135] ({CH2CO}-Y[NMeA]NP[Dap]L[Hyp]W[Dab][Trp(1-CH2COOH)][NMeNle][NMeNle]LC-X25; thioether N-14), the IC50 is reported as 10 to 99 nM. With CCCC[C@H]1C(=O)N(C)[C@@H](CCCC)C(=O)N[C@@H](CC(C)C)C(=O)N[C@H](C(=O)NCC(=O)NCC(=O)NCC(=O)NCCCCCCCCCCCCC(=O)O)CSCC(=O)N[C@@H](Cc2ccc(O)cc2)C(=O)N(C)[C@@H](C)C(=O)N[C@@H](CC(N)=O)C(=O)N2CCC[C@H]2C(=O)N[C@@H](CN)C(=O)N[C@@H](CC(C)C)C(=O)N2C[C@H](O)C[C@H]2C(=O)N[C@@H](Cc2c[nH]c3ccccc23)C(=O)N[C@@H](CCN)C(=O)N[C@@H](Cc2cn(CC(=O)O)c3ccccc23)C(=O)N1C [Example 11215] ({CH2CO}-Y[NMeA]NP[Dap]L[Hyp]W[Dab][Trp(1-CH2COOH)][NMeNle][NMeNle]LCGGG-{NH(CH2)12COOH}; thioether N-14) the IC50 was 10 to 99 nM.
